For seven compounds, Kd results are on record in US20260207798A1, “CYCLIC PEPTIDES AS PET IMAGING AGENTS OF GRANZYME B” (priority 2022, published 2026).

Numbered stars: 1 amine (or outer) side, 2 acyl side, 3 side chain; on linkers, the order of the positions; unused ones are H or OH. Bridge positions count the residues as written; N and C are the ends. Square brackets hold non-standard residues; d marks the D form. Peptide text beside a SMILES is read from it. I, II: the chains in the order shown. * marks the point of attachment. CO(CH2)2(OCH2CH2)17CO = O=C(CCOCCOCCOCCOCCOCCOCCOCCOCCOCCOCCOCCOCCOCCOCCOCCOCCOCCC(=O)[*:2])[*:1]; X5 = O=C(CCOCCOCCOCCOCCOCCOCCOCCOCCOCCOCCOCCC(=O)[*:2])[*:1]; Pro(trans-4-F) = O=C(O)[C@@H]1C[C@@H](F)CN1; Pro(4R-Me) = C[C@H]1CN[C@H](C(=O)O)C1; Tic = O=C(O)[C@@H]1Cc2ccccc2CN1; Propionyl = CCC(=O)* Where only a bound is given, the exact number is not on record here.

The target in this experiment is human Granzyme B (hGranzyme B) (Homo sapiens, UniProt P10144). Briefly: Surface plasmon resonance (SPR) binding kinetics to hGranzyme B. To be noted: 25° C., 1:1 binding model, KD=kd/ka; read-out: Granzyme B SPR Kd. How it is done:
The kinetics of test peptide binding to human Granzyme B (hGranzyme B) was determined by SPR. All experiments were performed at 25° C. using the Biacore 8k+ instrument (Cytiva, Marlborough, MA). The Biacore 8k+ Insight Evaluation Software Version 3.0 was used to fit the data with a 1:1 binding model to determine the association rate constant ka (M^−1s^−1, where “M” ~equals molar and “s” ~equals seconds) and the dissociation rate constant kd (s^−1). These rate constants were used to calculate the equilibrium dissociation constant. KD (M)=kd/ka.
To measure the binding kinetics of peptides of interest, surfaces were prepared by a capture method to a Series S Streptavidin (SA) chip using a 1×HBS-EP+ running buffer (Cytiva). hGranzyme B was diluted to 10 μg/mL in IX HBS-EP+ and flowed over spot 2 of each flow cell on the chip at a flow rate of 10 ul/min for 20 s to achieve a level of capture of ~1100 RU. An unmodified spot 1 of each flow cell was used as a matrix binding control or reference surface. Binding kinetics were measured using single cycle kinetics at 25° C. by injecting 5 concentrations with 3-fold serial dilutions of test peptides from 0.01 μM to 1 μM. Compound dilutions were performed manually in a running buffer containing 1×HBS-EP+(Cytiva), and a final concentration of 2% DMSO. The interaction analyses over hGranzyme B, were performed using a 120 s association time and a 900 s dissociation time. All experiments were conducted at a flow rate of 50 μL/min with a data collection rate of 10 Hz.
Peptide dilution series included 2 zero concentration points (no compound) which were averaged and subtracted from the peptide concentration injection as DMSO control responses. Binding data acquired from the reference surface (matrix binding control) were subtracted from the binding data for hGranzyme B surface on the chip to determine specific binding. Next, the association phase data were solvent corrected to account for any signal fluctuation throughout the experiment due to subtle DMSO concentration differences. Corrected response data were analyzed using the Biacore 8k+ Evaluation Software Version 3.0 according to the manufacturer. SPR data for representative compounds of the disclosure are found in Table 8.
In general terms: In SPR one partner is held on a chip, and binding of the other changes the refractive index at the surface.
As usually defined, the Kd is the concentration at which binding is half-saturated. As for `C[C@@H]1C[C@H]2C(=O)N[C@H](C(=O)NCC(N)=O)CSCC(=O)N[C@@H](Cc3ccccc3)C(=O)N[C@@H](CC(N)=O)C(=O)N[C@@H](Cc3ccccc3)C(=O)N[C@@H](CCC(=O)O)C(=O)N[C@@H](CC(=O)O)C(=O)N[C@@H](CCC(N)=O)C(=O)N[C@@H](CO)C(=O)N3CCC[C@H]3C(=O)N[C@@H](CC(=O)O)C(=O)N[C@@H]([C@@H](C)O)C(=O)N[C@@H](Cc3c[nH]c4ccccc34)C(=O)N[C@@H](CCC(N)=O)C(=O)N2C1` [Compound 55a, *F.N.F.E.D.Q.S.P.D.T.W.Q.Prot4Me.*C.G.NH2] ({CH2CO}-FNFEDQSPDTWQ[Pro(4R-Me)]CG-NH2; thioether N-14), the Kd turned out to be 5.1 nM.
For `C[C@@H](O)[C@@H]1NC(=O)[C@H](CC(=O)O)NC(=O)[C@@H]2CCCN2C(=O)[C@H](CO)NC(=O)[C@H](CCC(N)=O)NC(=O)[C@H](CC(=O)O)NC(=O)[C@H](CCC(=O)O)NC(=O)[C@H](Cc2ccccc2)NC(=O)[C@H](CC(N)=O)NC(=O)[C@H](Cc2ccccc2)NC(=O)CSC[C@@H](C(=O)NCC(N)=O)NC(=O)[C@@H]2Cc3ccccc3CN2C(=O)[C@H](CCC(N)=O)NC(=O)[C@H](Cc2c[nH]c3ccccc23)NC1=O` [Compound 53a, *F.N.F.E.D.Q.S.P.D.T.W.Q.Tic.*C.G.NH2] ({CH2CO}-FNFEDQSPDTWQ[Tic]CG-NH2; thioether N-14), the Kd amounted to 4.9 nM.
As for `C[C@@H](O)[C@@H]1NC(=O)[C@H](CC(=O)O)NC(=O)[C@@H]2C[C@@H](F)CN2C(=O)[C@H](CO)NC(=O)[C@H](CCC(N)=O)NC(=O)[C@H](CC(=O)O)NC(=O)[C@H](CCC(=O)O)NC(=O)[C@H](Cc2ccccc2)NC(=O)[C@H](CC(N)=O)NC(=O)[C@H](Cc2ccccc2)NC(=O)CSC[C@@H](C(=O)NCC(=O)NCC(=O)N[C@@H](CCCCN)C(N)=O)NC(=O)[C@@H]2CCCN2C(=O)[C@H](CCC(N)=O)NC(=O)[C@H](Cc2c[nH]c3ccccc23)NC1=O` [Compound 87a, *F.N.F.E.D.Q.S.Prot4F.D.T.W.Q.P.*C.G.G.K.NH2] ({CH2CO}-FNFEDQS[Pro(trans-4-F)]DTWQPCGGK-NH2; thioether N-14), the figure is 4.2 nM; as for `C[C@@H]1NC(=O)[C@H](CO)NC(=O)[C@H](CCC(N)=O)NC(=O)[C@H](CC(=O)O)NC(=O)[C@H](CCC(=O)O)NC(=O)[C@H](Cc2ccccc2)NC(=O)[C@H](CC(N)=O)NC(=O)[C@H](Cc2ccccc2)NC(=O)CSC[C@@H](C(=O)NCC(=O)NCC(=O)N[C@@H](CCCCNC(=O)CCOCCOCCOCCOCCOCCOCCOCCOCCOCCOCCOCCOCCOCCOCCOCCOCCOCCC(=O)NCCCC[C@H](NC(=O)CNC(=O)CNC(=O)[C@@H]2CSCC(=O)N[C@@H](Cc3ccccc3)C(=O)N[C@@H](CC(N)=O)C(=O)N[C@@H](Cc3ccccc3)C(=O)N[C@@H](CCC(=O)O)C(=O)N[C@@H](CC(=O)O)C(=O)N[C@@H](CCC(N)=O)C(=O)N[C@@H](CO)C(=O)N[C@@H](C)C(=O)N[C@@H](CC(=O)O)C(=O)N[C@@H]([C@@H](C)O)C(=O)N[C@@H](Cc3c[nH]c4ccccc34)C(=O)N[C@@H](CCC(N)=O)C(=O)N3CCC[C@H]3C(=O)N2)C(N)=O)C(N)=O)NC(=O)[C@@H]2CCCN2C(=O)[C@H](CCC(N)=O)NC(=O)[C@H](Cc2c[nH]c3ccccc23)NC(=O)[C@H]([C@@H](C)O)NC(=O)[C@H](CC(=O)O)NC1=O` [Compound 18a, (*F.N.F.E.D.Q.S.A.D.T.W.Q.P.*C.G.G.K.NH2)-PEG17-(F.N.F.E.D.Q.S.A.D.T.W.Q.P.C.G.G.K.NH2)] (I: {CH2CO}-FNFEDQSADTWQPCGGK-NH2 / II: {CH2CO}-FNFEDQSADTWQPCGGK-NH2; linker I:17-II:17 via CO(CH2)2(OCH2CH2)17CO (inferred); thioether I:N-I:14, II:N-II:14 (inferred)), under 0.3 nM; as for `CC(C)C[C@@H]1NC(=O)[C@@H]2CCCN2C(=O)[C@H](CO)NC(=O)[C@H](CCC(N)=O)NC(=O)[C@H](CC(=O)O)NC(=O)[C@H](CCC(=O)O)NC(=O)[C@H](Cc2ccccc2)NC(=O)[C@H](CC(N)=O)NC(=O)[C@H](Cc2ccccc2)NC(=O)CSC[C@@H](C(=O)NCC(N)=O)NC(=O)[C@@H]2CCCN2C(=O)[C@H](CCC(N)=O)NC(=O)[C@H](Cc2c[nH]c3ccccc23)NC(=O)[C@H]([C@@H](C)O)NC1=O` [Compound 52a, *F.N.F.E.D.Q.S.P.L.T.W.Q.P.*C.G.NH2] ({CH2CO}-FNFEDQSPLTWQPCG-NH2; thioether N-14), 4.8 nM.
Next, `CCC(=O)NCCCC[C@H](NC(=O)CNC(=O)CNC(=O)[C@@H]1CSCC(=O)N[C@@H](Cc2ccccc2)C(=O)N[C@@H](CC(N)=O)C(=O)N[C@@H](Cc2ccccc2)C(=O)N[C@@H](CCC(=O)O)C(=O)N[C@@H](CC(=O)O)C(=O)N[C@@H](CCC(N)=O)C(=O)N[C@@H](CO)C(=O)N2CCC[C@H]2C(=O)N[C@@H](CC(=O)O)C(=O)N[C@@H]([C@@H](C)O)C(=O)N[C@@H](Cc2c[nH]c3ccccc23)C(=O)N[C@@H](CCC(N)=O)C(=O)N2CCC[C@H]2C(=O)N1)C(N)=O` [Compound 15a, *F.N.F.E.D.Q.S.P.D.T.W.Q.P.*C.G.G.K(Prop).NH2] ({CH2CO}-FNFEDQSPDTWQPCGGK(Propionyl)-NH2; thioether N-14): 3.7 nM.
As for `C[C@@H]1NC(=O)[C@H](CO)NC(=O)[C@H](CCC(N)=O)NC(=O)[C@H](CC(=O)O)NC(=O)[C@H](CCC(=O)O)NC(=O)[C@H](Cc2ccccc2)NC(=O)[C@H](CC(N)=O)NC(=O)[C@H](Cc2ccccc2)NC(=O)CSC[C@@H](C(=O)NCC(=O)NCC(=O)N[C@@H](CCCCNC(=O)CCOCCOCCOCCOCCOCCOCCOCCOCCOCCOCCOCCC(=O)NCCCC[C@H](NC(=O)CNC(=O)CNC(=O)[C@@H]2CSCC(=O)N[C@@H](Cc3ccccc3)C(=O)N[C@@H](CC(N)=O)C(=O)N[C@@H](Cc3ccccc3)C(=O)N[C@@H](CCC(=O)O)C(=O)N[C@@H](CC(=O)O)C(=O)N[C@@H](CCC(N)=O)C(=O)N[C@@H](CO)C(=O)N[C@@H](C)C(=O)N[C@@H](CC(=O)O)C(=O)N[C@@H]([C@@H](C)O)C(=O)N[C@@H](Cc3c[nH]c4ccccc34)C(=O)N[C@@H](CCC(N)=O)C(=O)N3CCC[C@H]3C(=O)N2)C(N)=O)C(N)=O)NC(=O)[C@@H]2CCCN2C(=O)[C@H](CCC(N)=O)NC(=O)[C@H](Cc2c[nH]c3ccccc23)NC(=O)[C@H]([C@@H](C)O)NC(=O)[C@H](CC(=O)O)NC1=O` [Compound 17a, (*F.N.F.E.D.Q.S.A.D.T.W.Q.P.*C.G.G.K.NH2)-PEG11-(*F.N.F.E.D.Q.S.A.D.T.W.Q.P.*C.G.G.K.NH2)] (I: {CH2CO}-FNFEDQSADTWQPCGGK-NH2 / II: {CH2CO}-FNFEDQSADTWQPCGGK-NH2; linker I:17-II:17 via X5 (inferred); thioether I:N-I:14, II:N-II:14 (inferred)), the figure is under 0.3 nM.
